In article PMC8948292, “Combining PEGylated mito-atovaquone with MCT and Krebs cycle redox inhibitors as a potential strategy to abrogate tumor cell proliferation” (Scientific Reports, 2022):
Read-outs that look alike come from different tables or passages of the source.

How the values were obtained:
[1] = test system: mitochondrial respiration (OCR) in intact MiaPaCa-2 cells; experiment: Intact cell mitochondrial respiration (basal OCR), Seahorse XF-96; type: cell-based, human; conditions: 24 h treatment; for OCR (pmol/min/µg protein): intact MiaPaCa-2 cells, baseline OCR, mean, n=4
Experimental: (§1) Mitochondrial oxygen consumption was measured using the Seahorse XF-96 Extracellular Flux Analyzer (Agilent, North Billerica, MA)[3],[33],[67],[68]. To determine the intact cell mitochondrial function of MiaPaCa-2 cells in response to Mito-PEG-ATO analogs, we used the bioenergetic function assay previously described[2],[3]. […] From these measurements, indices of mitochondrial function were determined as previously described[2],[3]. For mitochondrial complex activities assays, after cells were treated with Mito-PEG-ATO analogs for 24 h, the OCR-based assessment of mitochondrial complex activities was carried out on acutely permeabilized cells in the presence of different mitochondrial substrates, i.e., pyruvate/malate for complex I and duroquinol for complex III[3],[32],[34],[69]. Rotenone, malonate, and antimycin A (Sigma-Aldrich, St. Louis, MO) were used as specific inhibitors of mitochondrial complexes I, II, and III, respectively. Briefly, cells that were intact after treatments were immediately permeabilized using the Seahorse XF Plasma Membrane Permeabilizer (Agilent). The mitochondrial complex I-induced OCR was assayed in mannitol and sucrose buffer[69] containing 10 mM pyruvate and 1.5 mM malate (substrates for complex I) and 10 mM malonate (which inhibits complex II activities). The mitochondrial complex III-driven OCR was assayed in a mannitol and sucrose buffer containing 0.5 mM duroquinol (substrate for complex III) as well as 1 µM rotenone and 10 mM malonate (which inhibit both complex I and II activities). The IC50 values were determined as previously reported.

MiaPaCa-2 cells = experiment: Cell proliferation (cell confluence), IncuCyte Live-Cell Analysis System; type: cell-based, human; conditions: MiaPaCa-2 cells
In short: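 MiaPaCa-2 cells in DMEM with 10% FBS, plated at 1,000 cells/well in triplicate and adhered overnight, then treated with Mito-PEG-ATO analogs. Confluence imaged label-free over several days, increase in percent confluence serving as proliferation surrogate.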

A549 cells = experiment: as above; type: cell-based; conditions: Homo sapiens; A549 cells; control ~90% confluence; read-out: IC50, inhibition of A549 cell proliferation
Experimental: (§2) The following cell lines were obtained from the American Type Culture Collection (Manassas, VA), where they were regularly authenticated: MiaPaCa-2 (ATCC Cat# CRL-1420, human pancreatic cancer cells), U87MG (ATCC Cat# HTB-14, human brain cancer cells), A549 (ATCC Cat# CCL-185, lung cancer cells), and HCT-116 (ATCC Cat# CCL-247, colon cancer cells). All cell lines were grown at 37 °C in 5% carbon dioxide. MiaPaCa-2 cells were maintained in Dulbecco's Modified Eagle Medium (Thermo Fisher Scientific, Waltham, MA; Cat# 11965) supplemented with 10% fetal bovine serum. U87MG, A549, and HCT-116 cells were maintained in RPMI 1640 medium (Thermo Fisher Scientific, Cat# 11875), supplemented with 10% fetal bovine serum. All cells were stored in liquid nitrogen and used within 20 passages after thawing.
(§3) The IncuCyte Live-Cell Analysis System was used to monitor cell proliferation[3],[33],[67]. As shown in previous publications[3],[67], this imaging system is probe-free and noninvasive, and enables continuous monitoring of cell confluence over several days. The increase in the percentage of cell confluence was used as a surrogate marker of cell proliferation. In a 96-well plate, cells were plated at 1,000 cells per well in triplicates and left to adhere overnight. Cells were then treated with Mito-PEG-ATO analogs, and the cell confluency was recorded over several days in the IncuCyte Live-Cell Analysis System.
(§4) Figure S7. Effects of Mito-PEG-ATO analogs on the proliferation of human lung cancer (A549) cells and human colon cancer (HCT-116) cells. (A) The effects of Mito-PEG5-ATO and ATO on the proliferation of A549 (left) or HCT-116 (right) cells were monitored in the IncuCyte Live-Cell Analysis system. The IncuCyte analyzer provides real-time updates on cell confluence, based on segmentation of high definition-phase contrast images. Representative cell images were shown as a segmentation mask illustrated in brown when control cells reached 90% confluence (vertical solid black line). (B) The IC50 values for A549 (left) or HCT-116 (right) cells were determined at the point at which control cells reached ~90% confluence (vertical solid black line). Relative cell confluence (control is taken as 100%) is plotted against concentration. Dashed lines represent the fitting curves used to determine the IC50 values as indicated. Data shown are the mean±SD.

HCT-116 cells = experiment: as above; type: cell-based; conditions: Homo sapiens; HCT-116 cells; control ~90% confluence; read-out: IC50, inhibition of HCT-116 cell proliferation
Experimental: as §2, §3, §4

[2] = biological target: mitochondrial complex I (MiaPaCa-2 cells) (Homo sapiens, UniProt O75251+O75306+P03886); experiment: Complex I-dependent oxygen consumption in permeabilized cells, Seahorse XF-96; type: cell-based; conditions: 24 h, with Mito-PEG5-ATO
Experimental: as §1, with “The mitochondrial complex III-driven OCR was assayed in a mannitol and sucrose buffer containing 0.5 mM duroquinol (substrate for complex III) as well as 1 µM rotenone and 10 mM malonate (which inhibit both complex I and II activities).” left out

[3] = biological target: mitochondrial complex III (MiaPaCa-2 cells) (Homo sapiens, UniProt P00156); experiment: Complex III-dependent oxygen consumption in permeabilized cells, Seahorse XF-96; type: cell-based; conditions: MiaPaCa-2 cells; with Mito-PEG5-ATO
Experimental: as §1

Chain of mitochondrial complex III (MiaPaCa-2 cells) (P00156 whole entry): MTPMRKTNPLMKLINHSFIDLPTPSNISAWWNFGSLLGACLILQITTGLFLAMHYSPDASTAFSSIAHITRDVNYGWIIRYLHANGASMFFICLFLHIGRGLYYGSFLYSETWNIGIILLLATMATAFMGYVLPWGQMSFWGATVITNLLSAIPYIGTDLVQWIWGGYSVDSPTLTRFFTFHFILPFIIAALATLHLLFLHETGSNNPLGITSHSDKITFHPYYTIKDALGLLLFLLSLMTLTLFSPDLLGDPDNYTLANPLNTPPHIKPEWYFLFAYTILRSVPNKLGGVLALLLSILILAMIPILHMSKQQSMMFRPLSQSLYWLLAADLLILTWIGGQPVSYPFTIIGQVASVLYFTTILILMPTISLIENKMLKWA
Chain of mitochondrial complex III (MiaPaCa-2 cells) (P47985 whole entry partner): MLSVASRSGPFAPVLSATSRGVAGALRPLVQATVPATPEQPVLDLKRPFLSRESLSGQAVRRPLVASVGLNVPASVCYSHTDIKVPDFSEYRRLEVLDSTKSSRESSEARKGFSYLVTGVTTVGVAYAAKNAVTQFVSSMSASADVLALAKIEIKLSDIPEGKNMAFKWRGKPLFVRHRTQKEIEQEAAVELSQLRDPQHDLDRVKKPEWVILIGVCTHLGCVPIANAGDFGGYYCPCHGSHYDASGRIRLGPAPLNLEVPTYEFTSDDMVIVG
Chain of mitochondrial complex I (MiaPaCa-2 cells) (O75306 34-463): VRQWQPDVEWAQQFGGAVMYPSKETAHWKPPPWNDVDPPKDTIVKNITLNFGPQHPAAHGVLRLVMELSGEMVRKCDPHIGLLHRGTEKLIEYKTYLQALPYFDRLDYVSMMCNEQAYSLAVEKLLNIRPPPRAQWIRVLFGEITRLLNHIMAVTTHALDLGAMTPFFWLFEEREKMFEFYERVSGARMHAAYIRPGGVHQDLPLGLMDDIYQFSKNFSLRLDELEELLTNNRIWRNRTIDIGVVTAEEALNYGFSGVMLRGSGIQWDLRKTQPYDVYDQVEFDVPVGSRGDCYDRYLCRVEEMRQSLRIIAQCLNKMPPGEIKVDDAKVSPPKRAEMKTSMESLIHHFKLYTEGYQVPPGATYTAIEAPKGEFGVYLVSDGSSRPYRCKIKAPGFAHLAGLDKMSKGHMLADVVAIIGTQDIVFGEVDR
Chain of mitochondrial complex I (MiaPaCa-2 cells) (O75251 39-213): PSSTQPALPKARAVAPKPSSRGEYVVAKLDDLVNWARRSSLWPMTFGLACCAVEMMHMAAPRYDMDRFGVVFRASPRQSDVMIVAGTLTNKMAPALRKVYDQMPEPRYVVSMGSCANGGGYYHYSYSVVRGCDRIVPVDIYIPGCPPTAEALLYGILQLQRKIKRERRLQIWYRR
Chain of mitochondrial complex I (MiaPaCa-2 cells) (P03886 whole entry): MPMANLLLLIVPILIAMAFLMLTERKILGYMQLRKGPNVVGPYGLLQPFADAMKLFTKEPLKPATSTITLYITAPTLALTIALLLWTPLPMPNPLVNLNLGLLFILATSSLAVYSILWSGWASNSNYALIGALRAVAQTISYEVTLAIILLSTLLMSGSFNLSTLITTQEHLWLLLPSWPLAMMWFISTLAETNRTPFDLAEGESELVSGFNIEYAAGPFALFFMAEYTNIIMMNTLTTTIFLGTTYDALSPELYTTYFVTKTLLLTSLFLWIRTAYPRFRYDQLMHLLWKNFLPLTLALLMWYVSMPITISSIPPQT

SMILES	OCR (pmol/min/µg protein) ([1]; 1 µM)	OCR (pmol/min/µg protein) ([1]; 3 µM)	OCR (pmol/min/µg protein) ([1]; 10 µM)	OCR (pmol/min/µg protein) ([1]; 15 µM)	OCR (pmol/min/µg protein) ([1]; 17.5 µM)	OCR (pmol/min/µg protein) ([1]; 20 µM)	OCR (pmol/min/µg protein) ([1]; 22.5 µM)	OCR (pmol/min/µg protein) ([1]; 25 µM)	OCR (pmol/min/µg protein) ([1]; 30 µM)	OCR (pmol/min/µg protein) ([1]; 40 µM)	OCR (pmol/min/µg protein) ([1]; 50 µM)	IC50 ([1]; Homo sapiens, MIA PaCa-2, MiaPaCa-2 cells, read-out: IC50, inhibition of basal OCR in intact cells) [µM]	IC50 (MiaPaCa-2 cells; Homo sapiens, MIA PaCa-2, determined when control cells reached ~90% confluence, read-out: IC50, inhibition of cell proliferation) [µM]	IC50 (A549 cells) [µM]	IC50 (HCT-116 cells) [µM]	Effect on the decrease in complex I-induced oxygen consumption induced by Mito-PEG5-ATO [2]	Inhibition of cell proliferation in combination with Mito-PEG5-ATO (combination index) (MiaPaCa-2 cells; combined with Mito-PEG5-ATO)	% changes of IC50 with vs without Mito-PEG5-ATO (MiaPaCa-2 cells; heat map Fig. 7d) [%]	IC50 (MiaPaCa-2 cells; inhibitor alone, control ~90% confluence, read-out: IC50 (cell proliferation) without Mito-PEG5-ATO) [µM]	Effect on the decrease in complex III-induced oxygen consumption induced by Mito-PEG5-ATO [3]
O=C1C(O)=C([C@H]2CC[C@H](c3ccc(Cl)cc3)CC2)C(=O)c2ccccc21 [ATO, atovaquone]	11.69	11.27	4.45	3.40	2.08	1.80	2.05	2.46	1.99	2.11	0.93	6.5	19	24	20	–	–	–	–	–
Cc1cccc(COc2ccccc2CN(CC[C@H](N)C(=O)O)Cc2ccccc2OCc2cccc(C)c2)c1 [V-9302, reference compound]	–	–	–	–	–	–	–	–	–	–	–	–	–	–	–	Neither AZD-3965 nor V-9302 significantly affected	synergistically inhibited	71.1	8.6	Neither AZD-3965 nor V-9302 significantly affected
